From ChEMBL document CHEMBL4706748, “Targeting KRAS Mutant Cancers via Combination Treatment: Discovery of a Pyridopyridazinone pan-RAF Kinase Inhibitor” (ACS Med Chem Lett, 2021) come the findings set out here.

The source made the active and inactive calls. The calls are words filed in the database; no cut-off is given here.

Data set [1] addresses Serine/threonine-protein kinase B-raf (Homo sapiens, UniProt P15056). Description: Inhibition of BRAF (unknown origin) (416 to 766) assessed as using inactive phosphorylated MAP2K1 substrate preincubated for 30 mins measured after 90 mins by DELFIA assay.
Data set [2] relates to A549. The data set is described as follows: Synergistic antiproliferative activity against human A549 cells harboring KRAS mutant assessed as reduction in cell viability in presence of 100 nM cobi-metinib. The class given is functional, cell-based.
The test system of data set [3] is A549. Description: Antiproliferative activity against human A549 cells harboring KRAS mutant assessed as reduction in cell viability. The format is functional, cell-based.
A short description of data set [4]: Clearance in mouse at 1 mg/kg, iv. Conditions: in vivo. The class given is ADME, organism-based.
Data set [5] is described as follows: Volume of distribution in mouse at 1 mg/kg, iv. The class given is ADME, organism-based. Conditions: in vivo.
Data set [6] in a line: Efflux ratio of permeability across basolateral to apical side over apical to basolateral side in MDCK cells. The format is ADME, cell-based, Canis lupus familiaris. The conditions noted are these: dog.
The nature of data set [7]: Apparent permeability across apical to basolateral side in MDCK cells. The format is ADME, cell-based, Canis lupus familiaris. Conditions: dog.
Data set [8] concerns the target RAF proto-oncogene serine/threonine-protein kinase (Homo sapiens, UniProt P04049, Y340D/Y341D). The data set is described as follows: Inhibition of CRAF Y340D/Y341D mutant (unknown origin) assessed as using inactive phosphorylated MAP2K1 substrate preincubated for 30 mins measured after 90 mins by DELFIA assay.
For a further data set, the system named is A-375. Description: Antiproliferative activity against human A375 cells harboring BRAF mutant assessed as reduction in cell viability. The format is functional, cell-based.
Data set [9] in a line: Half life in mouse. The class given is ADME, organism-based. Conditions: in vivo.
Data set [10] is described as follows: Oral bioavailability in mouse at 5 mg/kg. The class given is ADME, organism-based. The conditions noted are these: in vivo.
Data set [11] deals with Mus musculus. Description: In vivo inhibition of RAF in human HCT116 cells xenografted in NCR mouse assessed as inhibition of DUSP6 gene expression in presence of Cobi-metinib at 15 mg/kg, po qd for 4 days measured upto 8 hrs of last dose. The class given is functional, organism-based. The conditions noted are these: time 4.0 day.
The test system of data set [12] is Mus musculus. The data set is described as follows: In vivo inhibition of RAF in human HCT116 cells xenografted in NCR mouse assessed as inhibition of pRSK gene expression in presence of Cobi-metinib at 15 mg/kg, po qd for 4 days measured at 24 hrs of last dose. Conditions: time 4.0 day. The class given is functional, organism-based.
In data set [13] the test system is Mus musculus. The data set is described as follows: In vivo inhibition of RAF in human HCT116 cells xenografted in NCR mouse assessed as inhibition of DUSP6 gene expression at 15 mg/kg, po qd for 4 days measured upto 24 hrs of last dose. The class given is functional, organism-based. The conditions noted are these: time 4.0 day.
Data set [14] deals with Mus musculus. Description: In vivo inhibition of RAF in human HCT116 cells xenografted in NCR mouse assessed as inhibition of SPRY4 gene expression in presence of Cobi-metinib at 15 mg/kg, po qd for 4 days measured upto 8 hrs of last dose. The class given is functional, organism-based. The conditions noted are these: time 4.0 day.
Data set [15] deals with Mus musculus. The data set is described as follows: In vivo inhibition of RAF in human HCT116 cells xenografted in NCR mouse assessed as inhibition of DUSP6 gene expression in presence of Cobi-metinib at 15 mg/kg, po qd for 4 days measured at 24 hrs of last dose. The class given is functional, organism-based. The conditions noted are these: time 4.0 day.
Data set [16] deals with Mus musculus. Description: In vivo inhibition of RAF in human HCT116 cells xenografted in NCR mouse assessed as inhibition of SPRY4 gene expression at 15 mg/kg, po qd for 4 days measured upto 24 hrs of last dose. The class given is functional, organism-based. Conditions: time 4.0 day.
Data set [17] deals with Mus musculus. The data set is described as follows: In vivo inhibition of RAF in human HCT116 cells xenografted in NCR mouse assessed as inhibition of SPRY4 gene expression in presence of Cobi-metinib at 15 mg/kg, po qd for 4 days measured at 24 hrs of last dose. The class given is functional, organism-based. Conditions: time 4.0 day.
For data set [18], the system named is Mus musculus. The data set is described as follows: In vivo inhibition of RAF in human HCT116 cells xenografted in NCR mouse assessed as inhibition of pRSK gene expression in presence of Cobi-metinib at 15 mg/kg, po qd for 4 days measured upto 8 hrs of last dose. The class given is functional, organism-based. Conditions: time 4.0 day.
Data set [19] has as its system Mus musculus. Description: In vivo inhibition of RAF in human HCT116 cells xenografted in NCR mouse assessed as inhibition of DUSP6 gene expression at 5 mg/kg, po qd for 4 days measured upto 24 hrs of last dose. The class given is functional, organism-based. The conditions noted are these: time 4.0 day.
Data set [20] relates to Mus musculus. The data set is described as follows: In vivo inhibition of RAF in human HCT116 cells xenografted in NCR mouse assessed as inhibition of SPRY4 gene expression at 5 mg/kg, po qd for 4 days measured upto 24 hrs of last dose. The format is functional, organism-based. Conditions: time 4.0 day.

Sequence of RAF proto-oncogene serine/threonine-protein kinase (P04049 whole entry Y340D/Y341D): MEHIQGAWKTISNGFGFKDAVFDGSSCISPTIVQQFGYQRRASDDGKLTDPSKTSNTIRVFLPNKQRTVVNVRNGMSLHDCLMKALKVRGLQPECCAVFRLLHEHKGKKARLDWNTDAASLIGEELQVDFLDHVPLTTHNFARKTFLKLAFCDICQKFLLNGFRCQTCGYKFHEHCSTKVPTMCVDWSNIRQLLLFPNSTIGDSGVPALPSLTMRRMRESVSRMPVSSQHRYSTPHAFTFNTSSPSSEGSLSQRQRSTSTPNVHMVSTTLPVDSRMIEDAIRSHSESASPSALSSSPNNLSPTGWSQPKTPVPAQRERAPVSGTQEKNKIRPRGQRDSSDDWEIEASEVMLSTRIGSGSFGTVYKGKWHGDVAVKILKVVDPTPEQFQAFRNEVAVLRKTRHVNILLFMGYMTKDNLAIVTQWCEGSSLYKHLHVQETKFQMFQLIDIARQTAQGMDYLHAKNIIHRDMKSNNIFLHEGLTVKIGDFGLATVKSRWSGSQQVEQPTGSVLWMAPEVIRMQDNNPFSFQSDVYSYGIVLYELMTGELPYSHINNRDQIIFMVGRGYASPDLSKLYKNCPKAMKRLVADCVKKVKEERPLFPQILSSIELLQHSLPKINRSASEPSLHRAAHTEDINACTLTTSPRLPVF
Sequence of Serine/threonine-protein kinase B-raf (P15056 whole entry): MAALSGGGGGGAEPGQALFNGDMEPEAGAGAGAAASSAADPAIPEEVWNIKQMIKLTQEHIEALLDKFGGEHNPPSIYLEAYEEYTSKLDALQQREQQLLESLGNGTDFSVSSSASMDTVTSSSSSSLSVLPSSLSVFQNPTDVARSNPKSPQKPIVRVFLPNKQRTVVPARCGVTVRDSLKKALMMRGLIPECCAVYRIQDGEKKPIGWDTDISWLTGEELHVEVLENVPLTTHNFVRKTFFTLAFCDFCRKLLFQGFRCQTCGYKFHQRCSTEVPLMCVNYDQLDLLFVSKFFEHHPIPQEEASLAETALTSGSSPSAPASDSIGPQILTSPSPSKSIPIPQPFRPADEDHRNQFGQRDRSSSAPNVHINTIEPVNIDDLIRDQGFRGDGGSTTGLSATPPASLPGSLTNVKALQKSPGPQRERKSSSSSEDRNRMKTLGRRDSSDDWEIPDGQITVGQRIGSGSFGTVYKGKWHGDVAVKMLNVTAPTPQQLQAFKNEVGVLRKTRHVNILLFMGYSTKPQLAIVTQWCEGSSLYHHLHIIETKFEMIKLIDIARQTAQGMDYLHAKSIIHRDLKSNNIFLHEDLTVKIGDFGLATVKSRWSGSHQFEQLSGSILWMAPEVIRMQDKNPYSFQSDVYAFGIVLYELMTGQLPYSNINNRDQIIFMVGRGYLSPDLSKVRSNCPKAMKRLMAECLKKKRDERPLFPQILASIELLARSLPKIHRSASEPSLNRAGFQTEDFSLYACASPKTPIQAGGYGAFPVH

As to `Cc1cc(F)c(NC(=O)NCCC(C)(C)C)cc1Nc1ccc2ncn(C)c(=O)c2c1F`, the Ki in [1] is less than 0.08 nM. Besides, the IC50 with A549 [2] and with A549 [3] was 2900 nM in each case.
Regarding `Cc1cc(F)c(NC(=O)NCCC(C)(C)C)cc1-c1ccc2c(=O)n(C)ncc2c1`, the results for the Ki in [1] and in [8] were less than 0.08 nM and less than 0.05 nM, respectively. The compound also displayed a clearance in data set [4] of 22 mL/min/kg. This compound returned a Vd in [5] of 2.1 L/kg. In addition, the efflux ratio in [6] was found to be 0.5. Besides, in data set [7], the apical-to-basolateral permeability (Papp A→B) came out at 8.7 ×10⁻⁶ cm/s. The IC50 in the data set on A-375 is 210 nM; in the data set on A549 [2] it was 187 nM; in the data set on A549 [3] it was 1590 nM. The compound also had a half-life in [9] of 1.3 h. This compound displayed a bioavailability in data set [10] of 2%.
On to `CNc1ncc2cc(-c3cc(NC(=O)NCCC(C)(C)C)c(F)cc3C)c(C)nc2n1` [LY-3009120], for which the IC50 with A-375 stood at 28.3 nM; in the data set on A549 [2], 45.6 nM; in the data set on A549 [3], 545 nM.
Turning to `CNc1ncc2cc(-c3cc(NC(=O)NCCC(C)(C)C)c(F)cc3C)c(=O)n(C)c2n1`, the figures for the inhibition constant Ki in [1] and in [8] were 0.102 nM and 0.081 nM, respectively. For the same compound, the IC50 is 32.2 nM with A-375, 39.2 nM with A549 [2] and 337 nM with A549 [3].
For the compound `Cc1cc(F)c(NC(=O)NCCC(C)(C)C)cc1-c1ccc2cc(N)ncc2c1`, the results for the Ki in data set [1] and in [8] were less than 0.08 nM and less than 0.05 nM, respectively. Also, the half-inhibitory concentration (IC50) was determined as 224 nM with A-375, 148 nM in the data set with A549 [2] and 668 nM with A549 [3].
On to `Cc1cc(F)c(NC(=O)c2cccc(C(C)(C)C#N)c2)cc1-c1cnc2c(=O)n(C)ncc2c1`, for which the Ki in data set [1] amounted to 0.19 nM; in data set [8] it was 0.062 nM. In data set [4], the clearance is 17 mL/min/kg. In addition, the inhibition result in the data set with Mus musculus [11], with Mus musculus [13], in the data set with Mus musculus [14], in the data set on Mus musculus [16] and in the data set with Mus musculus [18] was “Active” each time. The Vd in data set [5] amounted to 1.7 L/kg. For the same compound, the inhibition entry in the data set with Mus musculus [12], in the data set on Mus musculus [15] and with Mus musculus [17] was “inactive” each time. Besides, in [6], the efflux ratio came to 0.86. In data set [7], the Papp A→B came to 14 ×10⁻⁶ cm/s. Also, the IC50 with A549 [2] came out at 369 nM; in the data set on A549 [3], 5470 nM. Also, the half-life in data set [9] was 1.9 h. The compound further registered a bioavailability in data set [10] of 37%.
For the compound `O=C(c1ccc(F)c(F)c1Nc1ccc(I)cc1F)N1CC(O)([C@@H]2CCCCN2)C1`, the inhibition result with Mus musculus [19] and in the data set on Mus musculus [20] was “Active” throughout.
As for `Cc1cc(F)c(C(=O)NCCCC(C)(C)C)cc1-c1ccc2c(=O)n(C)ncc2c1`, the Ki in data set [1] amounted to 0.12 nM; in data set [8], 0.06 nM. Moreover, in data set [6], the efflux ratio turned out to be 0.74. Moreover, in data set [7], the Papp A→B is 8.1 ×10⁻⁶ cm/s. Moreover, the concentration for half-maximal inhibition (IC50) in the data set with A549 [2] is 1120 nM; with A549 [3], 7730 nM.
Turning to `Cc1cc(F)c(NC(=O)c2cccc(C(C)(C)C#N)c2)cc1-c1ccc2c(=O)n(C)ncc2c1`, the values for the Ki in data set [1] and in data set [8] were less than 0.08 nM and less than 0.05 nM, respectively. In data set [6], the efflux ratio was determined as 1. In data set [7], the Papp A→B stood at 7.8 ×10⁻⁶ cm/s. Moreover, the IC50 worked out at 138 nM in the data set with A549 [2] and 1360 nM in the data set with A549 [3].
